The source of these data is patent US20240207265A1, “TREATMENT OF CNS DISEASES WITH sGC STIMULATORS” (Tisento Therapeutics Inc., priority 2021, published 2024).

The target in one test is T1, human α2β1 sGC isozyme (Homo sapiens, UniProt P33402+Q02153).
T1 construct: host or cells: CHO-K1
T1 sequence (P33402 1-732): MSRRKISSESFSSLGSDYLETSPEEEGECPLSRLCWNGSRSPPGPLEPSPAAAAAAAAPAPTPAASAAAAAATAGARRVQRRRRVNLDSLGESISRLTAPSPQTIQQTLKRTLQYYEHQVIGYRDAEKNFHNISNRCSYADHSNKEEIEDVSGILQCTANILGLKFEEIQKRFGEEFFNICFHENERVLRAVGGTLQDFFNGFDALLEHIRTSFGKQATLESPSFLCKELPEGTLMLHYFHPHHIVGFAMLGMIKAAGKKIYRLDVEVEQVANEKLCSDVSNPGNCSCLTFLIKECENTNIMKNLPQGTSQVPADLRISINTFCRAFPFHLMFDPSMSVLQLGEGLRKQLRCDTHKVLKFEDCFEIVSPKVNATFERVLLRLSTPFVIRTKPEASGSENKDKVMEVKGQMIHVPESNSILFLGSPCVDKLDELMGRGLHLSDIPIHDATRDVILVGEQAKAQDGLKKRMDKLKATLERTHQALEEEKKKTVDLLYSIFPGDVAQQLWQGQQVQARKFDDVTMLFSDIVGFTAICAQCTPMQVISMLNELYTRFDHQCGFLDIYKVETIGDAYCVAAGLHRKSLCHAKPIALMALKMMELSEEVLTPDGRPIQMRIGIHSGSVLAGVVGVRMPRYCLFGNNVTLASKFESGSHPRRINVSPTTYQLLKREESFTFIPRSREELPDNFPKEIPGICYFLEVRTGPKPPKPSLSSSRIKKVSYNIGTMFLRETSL
T1 sequence (Q02153 1-619): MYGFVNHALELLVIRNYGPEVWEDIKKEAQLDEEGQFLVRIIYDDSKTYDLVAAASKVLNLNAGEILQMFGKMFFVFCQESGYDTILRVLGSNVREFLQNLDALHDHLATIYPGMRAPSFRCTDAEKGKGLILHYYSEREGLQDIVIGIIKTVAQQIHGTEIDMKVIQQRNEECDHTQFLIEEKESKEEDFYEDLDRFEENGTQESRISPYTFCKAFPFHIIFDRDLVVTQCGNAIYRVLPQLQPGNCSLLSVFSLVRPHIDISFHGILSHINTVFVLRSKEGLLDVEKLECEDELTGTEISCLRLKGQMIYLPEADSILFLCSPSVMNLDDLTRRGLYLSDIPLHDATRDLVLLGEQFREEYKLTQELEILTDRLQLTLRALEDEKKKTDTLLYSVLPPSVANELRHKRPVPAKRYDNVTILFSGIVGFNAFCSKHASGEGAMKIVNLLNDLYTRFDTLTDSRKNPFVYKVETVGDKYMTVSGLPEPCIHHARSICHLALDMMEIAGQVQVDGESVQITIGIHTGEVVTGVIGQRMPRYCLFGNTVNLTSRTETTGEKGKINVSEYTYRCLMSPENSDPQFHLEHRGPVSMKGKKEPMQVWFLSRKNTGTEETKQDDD
The test is described as follows: cGMP assay in CHO-K1 cells stably expressing human α2β1 sGC isozyme. The test is classed as cell-based. The following applies: 10 μM DETA-NONOate. How it is done: sGC stimulators were dissolved in DMSO as a 10 mM solution and stored at −20° C. To achieve desired test concentrations, stock concentrations were serially diluted into DMSO and then diluted to the appropriate concentration in assay buffer.
CHO-K1 cells stably transfected with human α2β1 sGC isozyme (generated by GenScript for Ironwood) were cultured in F-12K medium (ATCC catalog #30-2004) with 10% fetal calf serum, 4 μg/mL puromycin (Gibco catalog #A11138-03) and 0.4 mg/mL of geneticin (Gibco catalog #10131-027) in a 95% humidified atmosphere containing 5% CO2 in air at 37° C. For GC activity assays, cells were seeded in 384 well poly-D-lysine coated flat bottom plates (Fisher Scientific #08-774-311) in either 50 μL or 70 μL medium at a density of either 3×10^4 cells/well or 15×10^3, respectively. Cells were incubated for 24 hours at 37° C. in a humidified chamber supplemented with 5% CO2.
For each test concentration, the compound was diluted in 100% DMSO to 100-fold of its final assay concentration. Immediately prior to the assay, the solution was diluted 20-fold into HBSS containing calcium, magnesium, and 50 μM DETA-NONOate (5× the final assay concentration). Medium was removed and cells were washed once with 40 μL of HBSS. Cells were then incubated with 40 μL of a solution containing 0.5 mM IBMX in HBSS for 15 min at 37° C. 10 μL from the sGC stimulator/HBSS/DETA-NONOate plate was added to the cells, which were incubated for an additional 20 min at 37° C. Final DMSO concentration was 1%, final DETA-NONOate concentration was 10 μM; and final compound concentrations were 30,000 nM, 6000 nM, 1200 nM, 240 nM, 48 nM, 9.6 nM, 1.92 nM, 0.384 nM, 0.077 nM, 0.015 nM, or 0.003 nM.
Following incubation with compound, assay buffer was removed and 50 μL of ice-cold 10% acetic acid+150 ng/mL internal standard (+3 cGMP) was added to each well. Samples were incubated on ice for 30-60 min. Following centrifugation at 4° C. for 5 min at 1000×g to pellet cell debris, the supernatant was transferred to a clean plate and the samples analyzed for cGMP content.
Data were analyzed with a 4-parameter fit (log(agonist) vs. response-variable slope) using GraphPad Prism Software v.8. The EC50 was interpolated from the curve fit and is defined as the concentration at which the compound elicits 50% of its maximal response. When the experiment was carried out multiple times for a given compound, the geometrical mean of all experiments is reported.

A further test relates to sGC enzyme. The test is described as follows: cGMP GloSensor cell-based assay, 384-well format (HEK293). Further details: species or system human. The following applies: HEK293 GloSensor 40F cGMP cells, 10 μM DETA-NONOate, geometrical mean; read-out: Glo EC50. From the text:
Human embryonic kidney cells (HEK293) cells expressing GloSensor™ 40F cGMP (Part No: CS182801, Promega) were used to evaluate the activity of test compounds. The luminescent biosensors (engineered luciferase) that were incorporated into these cells detect cGMP formed by the compounds stimulating the sGC enzyme and emit luminescence.
cGMP GloSensor cells were maintained in Dulbecco's Modification of Eagle's Medium (DMEM) supplemented with fetal bovine serum (FBS, 10% final) and hygromycine (200 ug/ml). The day before assay, cells were plated in DMEM with 10% FBS in a 50 μL volume at a density of 1.5×10^4 cells/well in a poly-D-lysine coated 384-well flat white-bottom plate (Corning Cat No 35661). Cells were incubated overnight at 37° C. in a humidified chamber with 5% CO2. The next day, medium was removed and cells were replaced with 40 ul/well of GloSensor™, 2 mM (Promega Cat No E1291). Cells were treated for 90 minutes at 25° C. to allow the substrate to equilibrate in the cells. Test compounds and Diethylenetriamine NONOate (DETA-NONOate) was diluted to 3 mM (20×) in serum-free CO2 independent medium and serially diluted at 4× dilutions to create 5× dose curve from which 10 ul was added to the wells (x μM concentration for test compound solution and 10 μM concentration for DETA-NONOate solution; wherein x is one of the following final concentrations: 30 μM, 7.5 μM, 1.9 μM, 469 nM, 117 nM, 29.3 nM, 7.3 nM, 1.83 nM, 0.46 nM, 0.11 nM, 0.03 nM) For the kinetics studies, luminescense was measured right away for 0.2 sec per well with Envision (Perkin Elmer). For endpoint SAR screening, data were collected after 55 min incubation at room temperature.
Concentration response data were analyzed using a 4-parameter fit (log (agonist) vs. response-variable slope). The EC50 was interpolated from the curve fit and is defined as the concentration at which the compound elicits 50% of its maximal response. When the experiment was carried out multiple times for a given compound, the geometrical mean of all experiments is reported.

Consider `Cc1cc(F)c(Cc2nc(-c3ncc(Cl)c(O)n3)cn3ccnc23)cc1F` [Compound I-17, 5-Chloro-2-(8-(2,5-difluoro-4-methylbenzyl)imidazo[1,2-a]pyrazin-6-yl)pyrimidin-4-ol], for which the concentration for a half-maximal effect (EC50) at human α2β1 sGC isozyme and in the test on sGC enzyme was at most 100 nM in each case.
